Read-outs that look alike come from different tables or passages of the source.
System: human monocytes
Assay: Assay (f): stimulated eicosanoid (PGE2, LTC4) release by human monocytes
Type: cell-based
Conditions: Monocyte, 0.25 h, A23187 1 μM, 15 min
Protocol: Assay (f): Measurement of stimulated eicosanoid release by human monocytes.
Leukocyte-rich leukopaks obtained from Biological Specialties (Lansdale, Pa.) were collected from male volunteers who were not taking anti-inflammatory drugs. Leukopaks were centrifuged (90× g for 15 min) twice to remove the platelet-rich plasma. The cell pellet was washed by centrifugation and resuspended in HBSS without Ca^2+ or Mg^2+. Histopaque 1077 was layered under the cell suspension and centrifuged at 400× g for 30 min to obtain the buffy coat. The interfacial buffy coat, containing monocytes and lymphocytes, was removed and saved. The buffy coat was washed twice with HBSS without Ca^2+ or Mg^2+ by centrifugation. The cell pellet (4-6×10^8 cells/30 mls) was resuspended in iso-osmotic media (RPMI-1640, 10% heat inactivated fetal bovine serum (FBS), 0.2 mM L-glutamine, 2.5 mM HEPES) and layered over an equal volume of 46% Percol mixture (10X PBS/Percol; 9.25/0.75) and 54% iso-osmotic media and centrifuged for 30 min at 1000× g (Marshall and Roshak, Biochem. Cell Biol. 71: 331-339, 1993). The monocyte population located at the interface of the Percoll gradient was removed and washed twice in HBSS without Ca^2+ or Mg^2+.
Monocytes (5×10^6 /ml) were incubated as a suspension in serum-free RPMI- 1640 medium containing the vehicle DMSO (<1%) or drug for 30 min at […] after which vehicle or stimuli was added for the indicated time. The stimulating agent is solubilized in DMSO and appropriate vehicle controls were included in all experiments. The amount of stimuli was chosen from the linear portion of a concentration versus product curve usually representing 60-80% maximal stimulation over the indicated incubation time at 37° C. (A23187, 1 μM,(15 min). The reaction was terminated by reduction of pH through addition of citric acid and centrifugation (10 min, 400× g, 4° C.). Cell viability was monitored before and after experiments using trypan blue exclusion. The cell-free media was decanted and stored at -70° C. until analyzed. Prostaglandin E2 and LTC4 were directly measured in cell-free media using enzyme immunoassay (EIA) kits purchased from Caymen Chemical Co. (Ann Arbor, Mich.). Sample or standard dilutions were made with appropriate media and analyzed in triplicate. Results were obtained by extrapolation from a standard curve prepared in the media and expressed as pg or ng/ml of sample.

[1] = read-out: IC50 for LTC4 release

IC50 [1] [nM] | IC50 (read-out: IC50 of PGE2 release) [nM] | Structure (SMILES)
~1000 | 100 to 1000 | O=C(Nc1cc(C(F)(F)F)cc(C(F)(F)F)c1)Nc1ccccc1Oc1ccccc1C(=O)O [Example 2, 2-[2-[3-[3,5-Bis (trifluoromethyl)phenyl]ureido]phenoxy]benzoic acid]
1000 to 2000 | > 10000 | O=C(Nc1cc(C(F)(F)F)cc(C(F)(F)F)c1)Nc1cc(C(F)(F)F)ccc1Oc1ccccc1C(=O)O [Example 7, 2-[2-[3-[3,5-Bis(trifluoromethyl)phenyl]ureido]-4-trifluoromethylphenoxy]benzoic acid]

Source: patent US5447957A, “Anti-inflammatory compounds” (SmithKline Beecham Corp., priority 1994, dated 1995)
